In ChEMBL document CHEMBL6087462, “Cuminaldehyde Potentiates Antiproteolytic Peptide Efficacy via Parallel Pathways of Enhanced Inner Membrane-Damaging Activity and Inhibition of Bacterial Energy Metabolism” (J Med Chem, 2025):

Assays:
[1] = system: Enterococcus faecalis; experiment: Antimicrobial activity against Enterococcus faecalis ATCC 29212 assessed as reduction in microbial growth by CLSI based broth microdilution method; type: functional
[2] = system: Escherichia coli; experiment: Antimicrobial activity against Escherichia coli K88 assessed as reduction in microbial growth by CLSI based broth microdilution method; type: functional
[3] = system: Escherichia coli; experiment: Antimicrobial activity against Escherichia coli ATCC 25922 assessed as reduction in microbial growth by CLSI based broth microdilution method; type: functional
[4] = system: Staphylococcus aureus; experiment: Antimicrobial activity against Staphylococcus aureus ATCC 25923 assessed as reduction in microbial growth by CLSI based broth microdilution method; type: functional
[5] = system: Staphylococcus aureus; experiment: Antimicrobial activity against Staphylococcus aureus ATCC 29213 assessed as reduction in microbial growth by CLSI based broth microdilution method; type: functional
[6] = system: Escherichia coli; experiment: Antimicrobial activity against Escherichia coli 078 assessed as reduction in microbial growth by CLSI based broth microdilution method; type: functional
[7] = system: Pseudomonas aeruginosa; experiment: Antimicrobial activity against Pseudomonas aeruginosa ATCC 27853 assessed as reduction in microbial growth by CLSI based broth microdilution method; type: functional
[8] = system: Salmonella typhimurium; experiment: Antimicrobial activity against Salmonella typhimurium ATCC 14028 assessed as reduction in microbial growth by CLSI based broth microdilution method; type: functional, Salmonella enterica subsp. enterica serovar Typhimurium; settings: Salmonella enterica
[9] = system: Staphylococcus epidermidis; experiment: Antimicrobial activity against Staphylococcus epidermidis ATCC 12228 assessed as reduction in microbial growth by CLSI based broth microdilution method; type: functional
[10] = system: Salmonella typhimurium; experiment: Antimicrobial activity against Salmonella typhimurium ATCC 7731 assessed as reduction in microbial growth by CLSI based broth microdilution method; type: functional, Salmonella enterica subsp. enterica serovar Typhimurium; settings: Salmonella enterica
[11] = Antimicrobial activity against Salmonella enterica subsp. enterica serovar Pullorum ATCC 7913 assessed as reduction in microbial growth by CLSI based broth microdilution method; type: functional
[12] = system: Escherichia coli; experiment: Antimicrobial activity against Escherichia coli K99 assessed as reduction in microbial growth by CLSI based broth microdilution method; type: functional
[13] = system: Escherichia coli; experiment: Antimicrobial activity against Escherichia coli UB 1005 assessed as reduction in microbial growth by CLSI based broth microdilution method; type: functional
[14] = system: Staphylococcus aureus; experiment: Antimicrobial activity against Staphylococcus aureus 43300 assessed as reduction in microbial growth by CLSI based broth microdilution method; type: functional
[15] = system: Escherichia coli; experiment: Drug resistance, ratio of MIC for Escherichia coli ATCC 25922 after 30 passages to MIC for Escherichia coli ATCC 25922 […] after initial exposure; type: functional

Structure (SMILES) | MIC [1] | MIC [2] | MIC [3] | MIC [4] | MIC [5] | MIC [6] | MIC [7] | MIC [8] | MIC [9] | MIC [10] | MIC [11] | MIC [12] | MIC [13] | MIC [14] | Ratio [15]
Cc1ccc(C(C)C)cc1O [CARVACROL] | 256 µg/mL | 256 µg/mL | 256 µg/mL | 128 µg/mL | 128 µg/mL | 128 µg/mL | 128 µg/mL | 128 µg/mL | 128 µg/mL | 128 µg/mL | 128 µg/mL | 128 µg/mL | 256 µg/mL | 256 µg/mL | 
O=C(O)c1cn(C2CC2)c2cc(N3CCNCC3)c(F)cc2c1=O [CIPROFLOXACIN] |  |  |  |  |  |  |  |  |  |  |  |  |  |  | 2
C=C(C)C1CC=C(C=O)CC1 (stereo not given) [PERILLALDEHYDE] | 512 µg/mL | 8190 µg/mL | 16400 µg/mL | 1230 µg/mL | 2050 µg/mL | 16400 µg/mL | 1230 µg/mL | 16400 µg/mL | 256 µg/mL | 16400 µg/mL | 16400 µg/mL | 16400 µg/mL | 16400 µg/mL | 512 µg/mL | 
CC(C)=CCC/C(C)=C/C=O [CITRAL] | 4100 µg/mL | 16400 µg/mL | 8190 µg/mL | 1020 µg/mL | 1020 µg/mL | 8190 µg/mL | 4100 µg/mL | 8190 µg/mL | 4100 µg/mL | 8190 µg/mL | 8190 µg/mL | 8190 µg/mL | 16400 µg/mL | 1020 µg/mL | 
CC(C)=CCCC(C)CC=O (stereo not given) | 1020 µg/mL | 32800 µg/mL | 16400 µg/mL | 16400 µg/mL | 4100 µg/mL | 32800 µg/mL | 16400 µg/mL | 32800 µg/mL | 16400 µg/mL | 32800 µg/mL | 32800 µg/mL | 32800 µg/mL | 16400 µg/mL | 4100 µg/mL | 
CC(C)c1ccc(C=O)cc1 [CUMINALDEHYDE] | 2050 µg/mL | 16400 µg/mL | 8190 µg/mL | 8190 µg/mL | 4100 µg/mL | 16400 µg/mL | 8190 µg/mL | 8190 µg/mL | 8190 µg/mL | 8190 µg/mL | 8190 µg/mL | 8190 µg/mL | 16400 µg/mL | 2050 µg/mL | 
Cc1ccc(C(C)C)c(O)c1 [THYMOL] | 256 µg/mL | 128 µg/mL | 256 µg/mL | 256 µg/mL | 256 µg/mL | 64 µg/mL | 256 µg/mL | 256 µg/mL | 128 µg/mL | 128 µg/mL | 256 µg/mL | 256 µg/mL | 256 µg/mL | 256 µg/mL | 
